Reference: PubChem BioAssay (NCI)
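A five-concentration, 48-hour dose response in 96-well plates underlies each endpoint, interpolated linearly between surrounding concentrations. The concentration for full growth arrest is given as TGI.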

Columns and labels:
Experiment in all cases: NCI-60 cell line screen, 48 h
786-0 renal = tested on: 786-0 renal
A498 renal = tested on: A498 renal
A549 NSCLC = tested on: A549 NSCLC
ACHN renal = tested on: ACHN renal
BT-549 breast = tested on: BT-549 breast
CAKI-1 renal = tested on: CAKI-1 renal
CCRF-CEM leukemia = tested on: CCRF-CEM leukemia
COLO 205 colon = tested on: COLO 205 colon
DU-145 prostate = tested on: DU-145 prostate
EKVX NSCLC = tested on: EKVX NSCLC
HCC-2998 colon = tested on: HCC-2998 colon
HCT-116 colon = tested on: HCT-116 colon
HCT-15 colon = tested on: HCT-15 colon
HL-60(TB) leukemia = tested on: HL-60(TB) leukemia
HOP-62 NSCLC = tested on: HOP-62 NSCLC
HOP-92 NSCLC = tested on: HOP-92 NSCLC
HS 578T breast = tested on: HS 578T breast
HT29 colon = tested on: HT29 colon
IGROV1 ovarian = tested on: IGROV1 ovarian
K-562 leukemia = tested on: K-562 leukemia
KM12 colon = tested on: KM12 colon
LOX IMVI melanoma = tested on: LOX IMVI melanoma
M14 melanoma = tested on: M14 melanoma
MCF7 breast = tested on: MCF7 breast
MDA-MB-231 breast = tested on: MDA-MB-231 breast
MDA-MB-435 = tested on: MDA-MB-435
MDA-N = tested on: MDA-N
MOLT-4 leukemia = tested on: MOLT-4 leukemia
NCI-H226 lung = tested on: NCI-H226 lung
NCI-H23 lung = tested on: NCI-H23 lung
NCI-H460 lung = tested on: NCI-H460 lung
NCI-H522 lung = tested on: NCI-H522 lung
NCI/ADR-RES ovarian = tested on: NCI/ADR-RES ovarian
OVCAR-3 ovarian = tested on: OVCAR-3 ovarian
OVCAR-4 ovarian = tested on: OVCAR-4 ovarian
OVCAR-5 ovarian = tested on: OVCAR-5 ovarian
OVCAR-8 ovarian = tested on: OVCAR-8 ovarian
PC-3 prostate = tested on: PC-3 prostate
RPMI-8226 leukemia = tested on: RPMI-8226 leukemia
RXF 393 renal = tested on: RXF 393 renal
SF-268 CNS = tested on: SF-268 CNS
SF-295 CNS = tested on: SF-295 CNS
SF-539 CNS = tested on: SF-539 CNS
SK-MEL-2 melanoma = tested on: SK-MEL-2 melanoma
SK-MEL-28 melanoma = tested on: SK-MEL-28 melanoma
SK-MEL-5 melanoma = tested on: SK-MEL-5 melanoma
SK-OV-3 ovarian = tested on: SK-OV-3 ovarian
SN12C renal = tested on: SN12C renal
SNB-19 CNS = tested on: SNB-19 CNS
SNB-75 CNS = tested on: SNB-75 CNS
SR leukemia = tested on: SR leukemia
SW-620 colon = tested on: SW-620 colon
T-47D breast = tested on: T-47D breast
TK-10 renal = tested on: TK-10 renal
U251 CNS = tested on: U251 CNS
UACC-257 melanoma = tested on: UACC-257 melanoma
UACC-62 melanoma = tested on: UACC-62 melanoma
UO-31 renal = tested on: UO-31 renal
MALME-3M melanoma = tested on: MALME-3M melanoma

Measured: TGI

COC(=O)[C@@H]1C[C@@H](O)CN1C(=O)c1ccc([N+](=O)[O-])cc1[N+](=O)[O-]
not listed: MALME-3M melanoma
> 100 µM: all other assays above

COc1ccc(-c2sc(Br)c3c2C(=O)C2OC(=O)NC32)cc1OC (stereo not given)
not listed: HCC-2998 colon | SK-MEL-28 melanoma
> 100 µM: all other assays above
